The values that follow come from patent US4180587A, “Ureylene phenylene anionic naphthalenesulfonic acids as complement inhibitors” (American Cyanamid Company, priority 1978, dated 1979).

Read-outs that look alike come from different tables or passages of the source.

For one test, the system named is whole complement. The test is described as follows: Complement Level Reduction Test: serum of dosed guinea pigs tested for whole complement by capillary tube assay. Type of test: in vivo, guinea pig. As to conditions: intraperitoneal, 200 mg/kg. The source says:
An active inhibitor protects C2 from C1 and C4; (ii) Test Code 035 (C3-C9 inhibitor)--This test determines the ability of the late components of human complement (C3-C9) to lyse EAC 142 in the presence of appropriate dilutions of the test compound. An active inhibitor protects EAC 142 from lysis by human C3-C9; (iii) Test Code 036 (C-Shunt inhibitor)--In this test human erythrocytes rendered fragile are lysed in autologous serum via the shunt pathway activated by cobra venom factor in the presence of appropriate dilutions of the test compound. Inhibition of the shunt pathway results in failure of lysis; (iv) Forssman Vasculitis Test--Here, the well known complement dependent lesion, Forssman vasculitis, is produced in guinea pigs by intradermal injection of rabbit anti-Forssman antiserum. The lesion is measured in terms of diameter, edema and hemorrhage and the extent to which a combined index of these is inhibited by prior intraperitoneal injection of the test compound at 200 mg/kg is then reported, unless otherwise stated; (v) Forssman Shock Test--Lethal shock is produced in guinea pigs by an i.v. injection of anti-Forssman antiserum and the harmonic mean death time of treated guinea pigs is compared with that of simultaneous controls; (vi) Complement Level Reduction Test--In this test, the above dosed guinea pigs, or others, are bled for serum and the complement level is determined in undiluted serum by the capillary tube method of U.S. Pat. No. 3,876,376 and compared to undosed control guinea pigs; and (vii) Cap 50 Test--Here, appropriate amounts of the test compound are added to a pool of guinea pig serum in vitro, after which the undiluted serum capillary tube assay referred to above is run. The concentration of compound inhibiting 50% is reported.
With reference to Table I, guinea pigs weighing about 300 g were dosed intravenously (i.v.) or intraperitoneally (i.p.) with 200 mg/kg of the test compound dissolved in saline and adjusted to pH 7-8. […] The serum was tested for whole complement using the capillary tube assay. Percent inhibition was calculated by comparison with simultaneous controls. The results appear in Table I together with results of tests code 026, 035, 036, Cap 50, % inhibition and Forssman shock.

Another test deals with shunt pathway. In words: Test Code 036 (C-Shunt inhibitor): lysis of fragile human erythrocytes in autologous serum via shunt pathway activated by cobra venom factor. Type of test: cell-based. As to conditions: activity in wells, twofold serial dilution. The source says:
(§1) An active inhibitor protects C2 from C1 and C4; (ii) Test Code 035 (C3-C9 inhibitor)--This test determines the ability of the late components of human complement (C3-C9) to lyse EAC 142 in the presence of appropriate dilutions of the test compound. An active inhibitor protects EAC 142 from lysis by human C3-C9; (iii) Test Code 036 (C-Shunt inhibitor)--In this test human erythrocytes rendered fragile are lysed in autologous serum via the shunt pathway activated by cobra venom factor in the presence of appropriate dilutions of the test compound. Inhibition of the shunt pathway results in failure of lysis; (iv) Forssman Vasculitis Test--Here, the well known complement dependent lesion, Forssman vasculitis, is produced in guinea pigs by intradermal injection of rabbit anti-Forssman antiserum. […]

Another test has as its system human C1. In words: Test Code 026 (C1 inhibitor): ability of activated human C1 to destroy fluid phase human C2 in the presence of C4. It counts as biochemical. As to conditions: activity in wells, twofold serial dilution; higher well number indicates higher activity.
Excerpt: as §1

Test [1] has as its system late components of human complement (C3-C9). The test is described as follows: Test Code 035 (C3-C9 inhibitor): lysis of EAC 142 by late components of human complement. The note with it: activity in wells, twofold serial dilution; higher well number indicates higher activity. It counts as cell-based.
Excerpt: as §1

The next test has as its system complement system. The note with it: reported in literature; cited from earlier work.
For test [2] the following is noted: reported in literature; cited from earlier work.
In test [3] the test system is total hemolytic complement activity. As to conditions: in vitro; judged by reduction in total hemolytic complement activity; cited from earlier work.
For test [4] the test system is unchanged. The note with it: in vivo; judged by reduction in total hemolytic complement activity; cited from earlier work.

Regarding `Cc1ccc(C(=O)Nc2cc(C(=O)Nc3ccc(S(=O)(=O)[O-])c4cc(S(=O)(=O)[O-])cc(S(=O)(=O)[O-])c34)ccc2C)cc1NC(=O)Nc1cc(C(=O)Nc2cc(C(=O)Nc3ccc(S(=O)(=O)[O-])c4cc(S(=O)(=O)[O-])cc(S(=O)(=O)[O-])c34)ccc2C)ccc1C.[Na+].[Na+].[Na+].[Na+].[Na+].[Na+]` [Example 3, 8,8'-[Ureylenebis[(4-methyl-3,1-phenylenecarbonyl)imino(4-methyl-3,1-phenylenecarbonyl)imino]]di-1,3,5-naphthalenetrisulfonic acid, hexasodium salt], the “In Vivo Activity (Guinea Pig) % Inhibition” value is given as -58% in the test on whole complement (30 minutes), -65% in the test on whole complement (60 minutes) and -77% in the test on whole complement (120 minutes). Besides, the “Shunt Inhibition 036 Wells” value with shunt pathway is reported as “N”. Besides, the “C1 026 Wells” value in the test on human C1 was “+3 Wells”. Besides, the “C-Late 035 Wells” value in test [1] was “+3 Wells”.
Take `Cc1ccc(C(=O)Nc2ccc(S(=O)(=O)O)c3cc(S(=O)(=O)O)cc(S(=O)(=O)O)c23)cc1NC(=O)c1cccc(NC(=O)Nc2cccc(C(=O)Nc3cc(C(=O)Nc4ccc(S(=O)(=O)O)c5cc(S(=O)(=O)O)cc(S(=O)(=O)O)c45)ccc3C)c2)c1` [Suramin]: the “In Vivo Activity (Guinea Pig) % Inhibition” value in the test on whole complement (30 minutes) is given as -9%; in the test on whole complement (60 minutes), -17%; in the test with whole complement (120 minutes) it was -44%. In the test on human C1, the “C1 026 Wells” value is on record as “+4 Wells”. The “C-Late 035 Wells” value in test [1] is listed as “+2 Wells”. The “anticomplementary effect / activity as complement inhibitor” value in the test on complement system is “moderately active as a complement inhibitor”.
With `Nc1ccc2cc(S(=O)(=O)[O-])cc(O)c2c1N=Nc1ccc(NC(=O)Nc2ccc(N=Nc3c(N)ccc4cc(S(=O)(=O)[O-])cc(O)c34)c(S(=O)(=O)[O-])c2)cc1S(=O)(=O)[O-].[Na+].[Na+].[Na+].[Na+]` [chlorazol fast pink, 3,3'-ureylenebis[6-(2-amino-8-hydroxy-6-sulfo-1-naphthylazo)benzenesulfonic acid], tetrasodium salt], the “anticomplementary effect / activity as complement inhibitor” value with complement system is recorded as “anticomplementary effect”.
`NCCCCCC(=O)O` [epsilon-aminocaproic acid]: the “treatment of hereditary angioneurotic edema” value in test [2] was “used with success”.
`NC[C@H]1CC[C@H](C(=O)O)CC1` [tranexamic acid]: the “treatment of hereditary angioneurotic edema” value in test [2] is given as “used with success”.
For heparin, the “anticomplementary effect / activity as complement inhibitor” value in the test on complement system is “anticomplementary effect”.
Take pentosan-polysulfoester: the “anticomplementary activity on human serum” value in test [3] and in test [4] was “anticomplementary activity” throughout.
